Assay results taken from patent US20060194748A1, “Methods for treating disorders induced by H. pylori infections and pharmaceutical compositions for the same” (National University Corporation Nagoya University, priority 2005, published 2006).
Converted amounts (≈) assume the structure as drawn. Where two headings read alike, the source gives them in different places.

Columns and labels:
[1] = test system: H. pylori 26695; assay: Time-kill curve test
Description: Glycine in BB was added to the cultures at the start of incubation. The mean values for the log number of CFU per milliliter versus time for H. pylori were tested with different concentrations of glycine. At 12-h intervals after drug addition, aliquots of each culture were spread onto BB agar for determination of the number of CFU.
The time course of the antibacterial effects was determined with strain 26695 (18). Briefly, bacteria cultured for 4 days on BB agar were diluted with fresh BB to ˜10^8 CFU/ml. […] At 0, 12, 24, 36, and 48 h, samples were removed and 0.1 ml of 10-fold serial dilution was plated onto BB agar. […] At 0, 6, 12, 18, and 24 h, samples were removed and 0.1 ml of 10-fold serial dilutions was plated onto BB agar. The number of colonies growing on the plates after 4 days of incubation was counted in both studies.

[2] = test system: CLR-susceptible and CLR-resistant H. pylori strains
Description: H. pylori strains were treated with the indicated concentrations of test compound for 3 days. The mean value for the log number of CFU per milliliter of all CLR-susceptible and all CLR-resistant H. pylori strains at each concentration was plotted. Glycine was used at concentrations of 0, 0.5, 1, 1.5, 2.0, and 2.5 mg/ml. […] Symbols: ▪, CLR-susceptible strains; ▴, CLR-resistant strains.
(§1) Briefly, all isolates were incubated for 4 days on BB agar. After this incubation, inocula were prepared by suspending growth from the BB agar plates with antimicrobial agents in saline to achieve a suspension equivalent to a 2.0 McFarland standard. Final inocula of 10^6 CFU/spot were applied to M-H agar or BB. All plates were incubated for 3 days at 35° C. in a microaerophilic atmosphere, and the number of CFU was counted. In the liquid culture study, aliquots from each culture were applied to BB agar after 3 days of incubation of H. pylori at 37° C. under microaerophilic conditions. After 4 days of incubation, the number of CFU was counted. The mean value for the log number of CFU per milliliter was plotted.

[3] = test system: Lactococcus lactis subspecies; conditions: cited from earlier work
[4] = test system: H. pylori strain 26695
Description: The PAE on bacteria was measured by a modification of the method of Ibrahim et al. (19). After 4 days of growth of strain 26695 on BB agar, the bacteria were harvested, placed into PBS, and diluted with BB to ˜10^8 CFU/ml; and a final inoculum of 10^6 CFU/ml was applied to BB agar. […] After incubation for 8 h, the antibiotics were removed by dilution 1:10^3 into fresh BB and the cultures were incubated for 24 h. Samples were collected for viable counts (numbers of CFU per milliliter) every 4 h, plated onto BB agar plates, and incubated for 4 days. Viability curves were then determined. The control culture, which was not exposed to any antimicrobial agents, was treated similarly.
For quantification of the PAE, viable counts were determined before and after antibiotic exposure.

[5] = test system: 31 H. pylori strains, including CLR-resistant strains
[6] = test system: 31 H. pylori strains, including CLR-resistant strains; assay: microbe, parasite or virus in culture; conditions: Helicobacter pylori
[7] = test system: H. pylori strain 26695; assay: MBC of AMX with glycine by liquid culture method
Description: H. pylori was treated with the indicated concentrations of the test compounds for 3 days. AMX was used at concentrations of 0 to 75 ng/ml. […] The mean value for the log number of CFU per milliliter at each concentration was plotted.
By a second method, the minimal bactericidal concentrations (MBCs), defined as the lowest concentration of each antibiotic that completely killed the isolates, were determined by using liquid cultures with antimicrobial agents by a modification of the method of Sjöström et al. (31). […] After 3 days of incubation of H. pylori at 37° C. under microaerophilic conditions, aliquots from each culture were applied to BB agar for determination of the MBC. After 4 days of incubation, the number of CFU was counted.

[8] = test system: H. pylori strains; assay: MIC of CLR for donor strains and CLR-resistant isogenic mutants (agar/disk dilution); assay type: cell-based, Helicobacter pylori
Description: The susceptibilities of the CLR-resistant strains were determined by the agar dilution method (27). […] The MIC of glycine was defined as the lowest concentration that inhibited the visible growth of isolates completely by the agar dilution method on Mueller-Hinton agar (Becton Dickinson and Company, Paramus, N.J.) plates supplemented with 5% aged sheep blood (Nippon Bio-Test Laboratories Inc., Tokyo, Japan) (M-H agar) (27).
as §1
CLR-resistant isogenic mutants with a single point mutation in domain V of the 23S rRNA gene were created from strain 26695 by natural transformation (3, 29). Transformants were isolated, and the MICs of CLR were determined by the disk dilution method.

SMILES: NCC(=O)O [glycine, Glycine]
- time of significant decrease in number of CFU (P<0.01) ([1]; glycine alone, all concentrations): 48 h
- earliest time of significant decrease in number of CFU (P<0.01) ([1]; glycine at 5 mg/ml): 24 h
- earliest time of significant decrease in number of CFU (P<0.01) ([1]; glycine at 10 mg/ml): 12 h
- nature of the effect of glycine ([1]; time-kill, 0 to 10 mg/ml): bactericidal
- difference in suppression of growth between CLR-susceptible and -resistant strains ([2]; including isogenic mutant strains, FIG. 1): no difference
- 80% Inh. % ([2]; see FIG. 1): 0.05 mg/mL
- glycine content of medium above which growth failed [3]: more than 2%
- PAE against H. pylori [4]: no PAE
- MIC of glycine [5]: the same as the MIC for strain 26695
- difference in glycine MIC for CLR-susceptible and -resistant strains [5]: no difference
- glycine concentration above which no colonies were detected in M-H agar ([5]; all strains tested): more than 2.5 mg/ml
- MIC50 [6]: 1500 µg/mL (≈ 20 mM)
- MIC90 ([6]; 31 strains): 2500 µg/mL (≈ 33.3 mM)
- MIC ([6]; ATCC43504, read-out: MIC of glycine): 2500 µg/mL
- MIC ([6]; read-out: MIC of glycine): 2500 µg/mL
- MIC ([6]; read-out: glycine MICs for the 31 strains): 1000 to 2500 µg/mL (≈ 13.3 to 33.3 mM)

SMILES: CC1(C)S[C@@H]2[C@H](NC(=O)[C@H](N)c3ccc(O)cc3)C(=O)N2[C@H]1C(=O)O [AMX, amoxicillin]
- viable cells at 24 h ([1]; AMX alone at 75 ng/ml): no viable cells
- MBC of AMX with glycine relative to that of AMX alone [7]: 1/10
- MBC ([7]; Helicobacter pylori, 26695, read-out: MBC of AMX with glycine, with glycine at 0.5 mg/ml): 0.025 µg/mL
- MBC ([7]; Helicobacter pylori, 26695, read-out: MBC of AMX with glycine, with glycine at 1 mg/ml): 0.01 µg/mL
- MBC ([7]; Helicobacter pylori, 26695, read-out: MBC of AMX, with glycine at 0 mg/ml (AMX alone)): 0.075 µg/mL

SMILES: CC[C@H]1OC(=O)[C@H](C)[C@@H](O[C@H]2C[C@@](C)(OC)[C@@H](O)[C@H](C)O2)[C@H](C)[C@@H](O[C@@H]2O[C@H](C)C[C@H](N(C)C)[C@H]2O)[C@](C)(OC)C[C@@H](C)C(=O)[C@H](C)[C@@H](O)[C@]1(C)O [CLR, clarithromycin]
- MIC of CLR ([8]; isogenic mutant strain 26695:535): 4 µg/mL
- MIC of CLR ([8]; isogenic mutant strain 26695:628): 32 µg/mL
- MIC of CLR ([8]; strain 535 (donor, A-to-G at position 2144)): 4 µg/mL
- MIC of CLR ([8]; strain 628 (donor, A-to-G at position 2143)): 32 µg/mL
